{
  "source": "patent US8309107B2",
  "about": "“Stable solutions of orlistat for pharmaceutical dosage forms” (Banner Pharmacaps, Inc., priority 2008, dated 2012)",
  "assay": "Compatibility of orlistat with surfactants",
  "format": "physicochemical",
  "details": "Chremophor EL emulsifying agent",
  "data": [
    {"smiles": "CCCCCCCCCCC[C@@H](C[C@@H]1OC(=O)[C@H]1CCCCCC)OC(=O)[C@H](CC(C)C)NC=O", "note": "[orlistat]", "values": [
      {"measurement": "effect of surfactant on degradation of orlistat", "value": "accelerate degradation"}
    ]}
  ]
}
